The record followed here is patent US12103919B2, “3-(5-oxy)-1-oxoisoindolin-2-yl)piperidine-2,6-dione derivatives and uses thereof” (NOVARTIS AG, priority 2021, dated 2024).

Each structure is given as a SMILES string. Where two headings read alike, the source gives them in different places.

The target of the assay is T1, WIZ (Homo sapiens, UniProt O95785+Q96SW2).
T1 construct: expressed in transfected cells
The experiment in a line: Quantification of WIZ protein levels in HiBit tag fusion protein assay (293T cells). The conditions noted are these: for remaining activity at 25 µM / Dmax at 25 µM / Dmax: HEK-293T; for remaining activity at 25 µM: read-out: WIZ Amax; for Dmax at 25 µM / % degradation of WIZ (100 − Amax): 100 − Amax, at 25 uM; for Dmax at 25 µM / Dmax: read-out: % degradation of WIZ (100 − Amax); for DC50: WIZ HiBit assay in 293T cells, about 18 hours, 10-point 5-fold dilution, top 25 μM, read-out: WIZ AC50. Details: Dmax: dose or concentration left out as unconfirmed. The assay is classed as cell-based. The procedure: The HiBit system from Promega was used to develop high-throughput and quantitative assays to measure changes in WIZ protein levels in response to compounds. The HiBit tag was derived from a split Nanoluciferase and has the following protein sequence: […] (SEQ ID NO: 1). The complementary fragment of Nanoluciferase (known as LgBit, from Promega), was added to the HiBit tag to form an active Nanoluciferase enzyme whose activity can be precisely measured. In this way, the levels of a fusion protein with the HiBit tag can be quantified in cell lysates.
Lentiviral vectors, based on the Invitrogen™ pLenti6.2/V5 DEST backbone were constructed that places the HiBit tag upstream of WIZ and expressed the fusion protein from an HSVTK promotor.
To ensure moderate and consistent expression of the HiBit-WIZ fusion protein across all cells in the population, stable cell lines were constructed from cells harboring a single copy of the construct. Lentivirus packaged with the constructs were made using the ViraPowerTMkit from Invitrogen™. 293T cells from ATCC (Catalog number: CRL-3216), were infected with the virus at low multiplicity of infection and selected by 5 μg/mL blasticidin in culture media for 2 weeks.
The levels of HiBit-WIZ tagged fusion proteins in compound-treated cell lines were measured as follows:
On day 1, cells were diluted to 1.0×10^6 cells/ml in normal growth medium. 20 μL of cell suspension were plated in each well of a solid white 384-well plate. Plates were incubated overnight in a 37° C. and 5% CO2 humidified tissue culture incubator.
On day 2, serial dilutions of compounds were made in 384-well plates. Compound plates were set up with DMSO in columns 1, 2, 23, 24, and 10-point compound dilution series in column 3-12 and column 13-22. 10 mM stock solution of compound were placed into column 3 or 13 and a 1:5 serial dilution was carried out until there was a 10-point dilution series per compound. 50 nL of diluted compounds were transferred into the plated cells by Echo® (Labcyte) acoustic transfer. The highest concentration of compound was 25 μM. Plates were incubated overnight (about 18 hours) in a 37° C. and 5% CO2 humidified tissue culture incubator.
On day 3, plates were removed from the incubator and allowed to equilibrate at room temperature for 60 minutes. HiBit substrate (Nano-Glo® HiBit Lytic Detection System, Promega Catalogue number: N3050) was added as described by the manufacturers protocols. Plates were incubated at room temperature for 30 minutes and luminescence was read using an EnVision® reader (PerkinElmer®). Data was analyzed and visualized using the Spotfire® software package.
WIZ Amax reflects the DMSO-normalized, curve-fitted percentage of WIZ-HiBit remaining at 25 uM. It was calculated by normalizing DMSO controls to 100%, parametric curve fitting of the dose response data (10-point, 5-fold), followed by calculation of response at 25 uM using the fitted equation.

[1] abbreviates: DMSO-normalized, curve-fitted percentage of WIZ-HiBit remaining at 25 uM.

T1 sequence (O95785 whole entry): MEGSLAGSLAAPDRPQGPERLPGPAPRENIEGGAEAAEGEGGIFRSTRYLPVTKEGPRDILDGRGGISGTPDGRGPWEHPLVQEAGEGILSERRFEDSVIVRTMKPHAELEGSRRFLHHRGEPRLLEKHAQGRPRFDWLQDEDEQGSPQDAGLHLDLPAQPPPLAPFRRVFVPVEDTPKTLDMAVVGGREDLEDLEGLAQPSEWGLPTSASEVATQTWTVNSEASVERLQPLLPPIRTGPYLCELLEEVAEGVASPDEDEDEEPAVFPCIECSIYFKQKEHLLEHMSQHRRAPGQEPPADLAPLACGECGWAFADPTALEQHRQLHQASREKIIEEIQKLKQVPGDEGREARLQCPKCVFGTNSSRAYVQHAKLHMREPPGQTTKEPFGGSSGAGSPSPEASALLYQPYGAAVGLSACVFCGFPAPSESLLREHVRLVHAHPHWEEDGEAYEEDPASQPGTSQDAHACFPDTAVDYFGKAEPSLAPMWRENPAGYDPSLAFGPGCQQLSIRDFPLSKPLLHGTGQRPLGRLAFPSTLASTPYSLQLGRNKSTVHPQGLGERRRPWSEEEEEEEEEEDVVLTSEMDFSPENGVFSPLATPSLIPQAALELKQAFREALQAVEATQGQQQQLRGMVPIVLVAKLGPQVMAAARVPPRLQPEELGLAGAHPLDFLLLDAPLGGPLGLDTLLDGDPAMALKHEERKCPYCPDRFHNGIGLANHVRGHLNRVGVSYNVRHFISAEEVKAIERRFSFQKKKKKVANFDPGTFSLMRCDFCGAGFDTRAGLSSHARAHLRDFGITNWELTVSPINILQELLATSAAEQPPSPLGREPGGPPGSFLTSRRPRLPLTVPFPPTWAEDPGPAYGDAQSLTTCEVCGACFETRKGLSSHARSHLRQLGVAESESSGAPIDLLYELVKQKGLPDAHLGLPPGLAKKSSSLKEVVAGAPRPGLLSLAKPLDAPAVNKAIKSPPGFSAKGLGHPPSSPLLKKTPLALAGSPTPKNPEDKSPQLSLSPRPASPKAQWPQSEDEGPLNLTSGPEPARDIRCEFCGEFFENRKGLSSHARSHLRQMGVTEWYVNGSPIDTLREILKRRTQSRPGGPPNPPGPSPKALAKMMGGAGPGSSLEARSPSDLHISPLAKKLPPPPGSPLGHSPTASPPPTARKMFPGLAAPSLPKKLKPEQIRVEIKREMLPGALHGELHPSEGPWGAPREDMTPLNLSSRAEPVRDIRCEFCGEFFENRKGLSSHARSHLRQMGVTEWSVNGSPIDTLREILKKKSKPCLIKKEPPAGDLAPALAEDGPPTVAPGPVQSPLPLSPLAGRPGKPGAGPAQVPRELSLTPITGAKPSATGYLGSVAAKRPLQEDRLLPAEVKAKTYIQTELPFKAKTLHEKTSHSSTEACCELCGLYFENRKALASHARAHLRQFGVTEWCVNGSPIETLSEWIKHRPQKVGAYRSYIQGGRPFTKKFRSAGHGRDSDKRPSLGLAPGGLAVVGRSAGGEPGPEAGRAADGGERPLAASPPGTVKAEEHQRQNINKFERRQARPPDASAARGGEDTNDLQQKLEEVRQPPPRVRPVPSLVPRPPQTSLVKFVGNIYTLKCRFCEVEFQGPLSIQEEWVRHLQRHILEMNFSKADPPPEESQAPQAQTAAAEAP
T1 sequence (Q96SW2 whole entry): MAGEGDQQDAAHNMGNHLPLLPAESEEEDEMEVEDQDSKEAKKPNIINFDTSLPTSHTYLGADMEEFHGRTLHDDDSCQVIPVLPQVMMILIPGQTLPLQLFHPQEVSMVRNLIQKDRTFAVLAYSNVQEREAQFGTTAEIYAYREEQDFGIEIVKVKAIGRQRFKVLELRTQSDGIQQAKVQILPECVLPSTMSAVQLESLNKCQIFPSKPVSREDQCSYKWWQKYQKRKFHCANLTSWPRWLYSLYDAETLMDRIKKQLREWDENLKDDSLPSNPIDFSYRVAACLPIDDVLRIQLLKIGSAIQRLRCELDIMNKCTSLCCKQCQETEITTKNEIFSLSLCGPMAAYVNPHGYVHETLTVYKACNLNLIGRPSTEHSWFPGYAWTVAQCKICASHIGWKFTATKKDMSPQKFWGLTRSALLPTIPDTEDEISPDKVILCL
T1 sequence (Q16531 whole entry partner): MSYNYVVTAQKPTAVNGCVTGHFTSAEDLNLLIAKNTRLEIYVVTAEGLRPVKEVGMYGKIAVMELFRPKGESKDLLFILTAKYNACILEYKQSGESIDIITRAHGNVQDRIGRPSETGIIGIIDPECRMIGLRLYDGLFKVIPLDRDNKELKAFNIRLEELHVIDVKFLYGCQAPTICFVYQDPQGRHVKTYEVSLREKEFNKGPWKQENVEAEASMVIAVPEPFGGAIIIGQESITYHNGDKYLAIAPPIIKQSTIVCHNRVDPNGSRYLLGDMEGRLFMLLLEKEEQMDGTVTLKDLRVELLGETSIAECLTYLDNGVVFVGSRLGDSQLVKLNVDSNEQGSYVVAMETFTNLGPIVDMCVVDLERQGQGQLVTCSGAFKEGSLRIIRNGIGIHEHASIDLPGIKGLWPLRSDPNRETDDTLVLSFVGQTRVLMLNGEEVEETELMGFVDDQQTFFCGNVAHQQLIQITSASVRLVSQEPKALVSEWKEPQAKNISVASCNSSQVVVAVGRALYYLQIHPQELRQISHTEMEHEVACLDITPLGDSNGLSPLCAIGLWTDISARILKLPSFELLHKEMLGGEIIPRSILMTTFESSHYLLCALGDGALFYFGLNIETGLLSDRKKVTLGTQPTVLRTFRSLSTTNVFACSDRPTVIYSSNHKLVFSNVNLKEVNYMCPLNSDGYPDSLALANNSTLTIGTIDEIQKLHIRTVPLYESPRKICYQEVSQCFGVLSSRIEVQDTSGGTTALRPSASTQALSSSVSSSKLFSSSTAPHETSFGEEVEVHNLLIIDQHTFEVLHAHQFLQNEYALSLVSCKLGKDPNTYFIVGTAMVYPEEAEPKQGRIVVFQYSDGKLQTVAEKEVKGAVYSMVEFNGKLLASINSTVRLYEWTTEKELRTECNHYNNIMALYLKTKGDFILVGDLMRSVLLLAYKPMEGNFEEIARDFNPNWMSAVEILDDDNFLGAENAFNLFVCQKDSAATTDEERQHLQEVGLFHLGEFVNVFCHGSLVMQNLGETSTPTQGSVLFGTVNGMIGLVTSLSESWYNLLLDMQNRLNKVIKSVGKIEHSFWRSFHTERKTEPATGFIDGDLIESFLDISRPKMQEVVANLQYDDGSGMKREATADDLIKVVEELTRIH

Consider `CCN1C[C@H]2C[C@H]2[C@@H](Oc2ccc3c(c2)CN(C2CCC(=O)NC2=O)C3=O)C1` (single isomer, unassigned) [Example 22, 3-(5-(((1S*,5R*,6R*)-3-ethyl-3-azabicyclo[4.1.0]heptan-5-yl)oxy)-1-oxoisoindolin-2-yl)piperidine-2,6-dione], for which the Dmax at 25 µM worked out at 24.4% and the DC50 was 83 nM. The remaining activity at 25 µM under setting [1] amounted to 75.7%.
As to `CCN1C[C@@H](O)C[C@@H](Oc2ccc3c(c2)CN(C2CCC(=O)NC2=O)C3=O)C1` (mixture of isomers) [Example 47, rac-3-(5-(((3R,5S)-1-ethyl-5-hydroxypiperidin-3-yl)oxy)-1-oxoisoindolin-2-yl)piperidine-2,6-dione], the Dmax was found to be 22.8%, the remaining activity at 25 µM was 77.2% and the DC50 was found to be 88 nM.
Turning to `CC(C)N1C[C@H](C)C[C@@H](Oc2ccc3c(c2)CN(C2CCC(=O)NC2=O)C3=O)C1` (stereo partly drawn) [Example 77, 3-(5-(((3R,5R)-1-isopropyl-5-methylpiperidin-3-yl)oxy)-1-oxoisoindolin-2-yl)piperidine-2,6-dione], the Dmax at 25 µM came to 86.5% and the DC50 stood at 1.1 nM. Further, the remaining activity at 25 µM under setting [1] worked out at 13.6%.
For the compound `CCN1CCC2(CCC2)C(Oc2ccc3c(c2)CN(C2CCC(=O)NC2=O)C3=O)C1` (racemic) [Example 54, rac-3-(5-((7-ethyl-7-azaspiro[3.5]nonan-5-yl)oxy)-1-oxoisoindolin-2-yl)piperidine-2,6-dione], the remaining activity at 25 µM was 102% and the DC50 is over 25000 nM.
For `CCN1C[C@H](OC)C[C@@H](Oc2ccc3c(c2)CN(C2CCC(=O)NC2=O)C3=O)C1` (single isomer, unassigned) [Example 65-2], the DC50 came to 1.2 nM and the “% degradation of WIZ (100 − Amax)” value was determined as 80.33%. Also, the “WIZ Amax” value under setting [1] is reported as 19.67%.
For `CC[C@@H](C)N1CCC[C@@H](Oc2ccc3c(c2)CN(C2CCC(=O)NC2=O)C3=O)C1` (stereo partly drawn) [Example 32, 3-(5-(((R)-1-((R)-sec-butyl)piperidin-3-yl)oxy)-1-oxoisoindolin-2-yl)piperidine-2,6-dione], the Dmax at 25 µM worked out at 80.8% and the DC50 was determined as 1.7 nM. Further, the remaining activity at 25 µM under setting [1] is 19.2%.
Take `CCO[C@@H]1C[C@@H](Oc2ccc3c(c2)CN(C2CCC(=O)NC2=O)C3=O)CN(CC)C1` (stereo partly drawn) [Example 63, 3-(5-(((3R,5R)-5-ethoxy-1-ethylpiperidin-3-yl)oxy)-1-oxoisoindolin-2-yl)piperidine-2,6-dione]: the Dmax was determined as 79.5%, the remaining activity at 25 µM came out at 20.5% and the DC50 came to 0.12 nM.
For `CCO[C@@H]1C[C@@H](Oc2ccc3c(c2)CN(C2CCC(=O)NC2=O)C3=O)CN(CC(C)C)C1` (stereo partly drawn) [Example 72, 3-(5-(((3R,5R)-5-ethoxy-1-isobutylpiperidin-3-yl)oxy)-1-oxoisoindolin-2-yl)piperidine-2,6-dione], the Dmax at 25 µM amounted to 59.9% and the DC50 came out at 41.5 nM. Besides, under setting [1], the remaining activity at 25 µM came to 40.1%.
For `CC(C)CN1CCC2(CC2)[C@@H](Oc2ccc3c(c2)CN(C2CCC(=O)NC2=O)C3=O)C1` (stereo partly drawn) [Example 16, 3-(5-(((R)-6-isobutyl-6-azaspiro[2.5]octan-4-yl)oxy)-1-oxoisoindolin-2-yl)piperidine-2,6-dione] the same measures were 59.1%, 2.5 nM and 40.9%.
Regarding `CCO[C@@H]1C[C@@H](Oc2ccc3c(c2)CN(C2CCC(=O)NC2=O)C3=O)CN(C(=O)NC)C1` (stereo partly drawn) [Example 68, (3R,5R)-3-((2-(2,6-dioxopiperidin-3-yl)-1-oxoisoindolin-5-yl)oxy)-5-ethoxy-N-methylpiperidine-1-carboxamide], the DC50 is over 25000 nM. In addition, the remaining activity at 25 µM under setting [1] came to 105%.
Take `CCN1CC(Oc2ccc3c(c2)CN(C2CCC(=O)NC2=O)C3=O)CC2(CC2)C1` (single isomer, unassigned) [Example 18, 3-(5-((5-ethyl-5-azaspiro[2.5]octan-7-yl)oxy)-1-oxoisoindolin-2-yl)piperidine-2,6-dione]: the DC50 came out at 20 nM and the “% degradation of WIZ (100 − Amax)” value is 38.62%. For the same compound, under setting [1], the “WIZ Amax” value was 61.38%.
With `CCN1CC[C@H](Oc2ccc3c(c2)CN(C2CCC(=O)NC2=O)C3=O)C1` (stereo partly drawn) [Example 40, 3-(5-(((S)-1-ethylpyrrolidin-3-yl)oxy)-1-oxoisoindolin-2-yl)piperidine-2,6-dione], the Dmax at 25 µM was found to be 26.5% and the DC50 was found to be 770 nM. Also, under setting [1], the remaining activity at 25 µM turned out to be 73.5%.
For `CC(C)CN1CCC[C@@H](Oc2ccc3c(c2)CN(C2CCC(=O)NC2=O)C3=O)C1` (stereo partly drawn) [Example 3, 3-(5-(((R)-1-isobutylpiperidin-3-yl)oxy)-1-oxoisoindolin-2-yl)piperidine-2,6-dione] the same measures were 73.2%, 2 nM and 26.8%.
As to `CCN1C[C@H](O)C[C@@H](Oc2ccc3c(c2)CN(C2CCC(=O)NC2=O)C3=O)C1` (stereo partly drawn) [Example 66, 3-(5-(((3R,5R)-1-ethyl-5-hydroxypiperidin-3-yl)oxy)-1-oxoisoindolin-2-yl)piperidine-2,6-dione], the Dmax at 25 µM came out at 80.1% and the DC50 worked out at 33.3 nM. For the same compound, the remaining activity at 25 µM under setting [1] was determined as 19.9%.
For `CCN1C[C@H](OC)C[C@@H](Oc2ccc3c(c2)CN(C2CCC(=O)NC2=O)C3=O)C1` (single isomer, unassigned) [Example 65-1] the same measures were 81.9%, 1.4 nM and 18.1%.
Consider `CCN1C[C@H](C)C[C@@H](Oc2ccc3c(c2)CN(C2CCC(=O)NC2=O)C3=O)C1` (mixture of isomers) [Example 52, rac-3-(5-(((3R,5R)-1-Ethyl-5-methylpiperidin-3-yl)oxy)-1-oxoisoindolin-2-yl)piperidine-2,6-dione], for which the Dmax is 76.2%, the remaining activity at 25 µM is 23.8% and the DC50 worked out at 5.5 nM.
Take `O=C1CCC(N2Cc3cc(O[C@@H]4CCCN(C5CCOCC5)C4)ccc3C2=O)C(=O)N1` (stereo partly drawn) [Example 10, 3-(1-oxo-5-(((R)-1-(tetrahydro-2H-pyran-4-yl)piperidin-3-yl)oxy)isoindolin-2-yl)piperidine-2,6-dione]: the Dmax at 25 µM was 54.5% and the DC50 stood at 33 nM. Moreover, the remaining activity at 25 µM under setting [1] came to 45.5%.
In the case of `CCN1CCC2(CC2)[C@@H](Oc2ccc3c(c2)CN(C2CCC(=O)NC2=O)C3=O)C1` (stereo partly drawn) [Example 15, 3-(5-(((R)-6-ethyl-6-azaspiro[2.5]octan-4-yl)oxy)-1-oxoisoindolin-2-yl)piperidine-2,6-dione], the Dmax was found to be 80%, the remaining activity at 25 µM amounted to 20% and the DC50 was found to be 8.4 nM.
As for `CNC(=O)N1C[C@H](Oc2ccc3c(c2)CN(C2CCC(=O)NC2=O)C3=O)CC[C@@H]1C` (stereo partly drawn) [Example 84, (2S,5R)-5-((2-(2,6-dioxopiperidin-3-yl)-1-oxoisoindolin-5-yl)oxy)-N,2-dimethylpiperidine-1-carboxamide], the Dmax at 25 µM amounted to 18.3% and the DC50 was 1170 nM. For the same compound, the remaining activity at 25 µM under setting [1] turned out to be 81.7%.
Consider `C[C@@H]1C[C@@H](Oc2ccc3c(c2)CN(C2CCC(=O)NC2=O)C3=O)CN(C2CCC2)C1` (stereo partly drawn) [Example 78, 3-(5-(((3R,5R)-1-cyclobutyl-5-methylpiperidin-3-yl)oxy)-1-oxoisoindolin-2-yl)piperidine-2,6-dione], for which the Dmax was 85.7%, the remaining activity at 25 µM was 14.3% and the DC50 stood at 0.5 nM.
Take `CCCN1CCC[C@@H](Oc2ccc3c(c2)CN(C2CCC(=O)NC2=O)C3=O)C1` (stereo partly drawn) [Example 8, 3-(1-oxo-5-(((R)-1-propylpiperidin-3-yl)oxy)isoindolin-2-yl)piperidine-2,6-dione]: the Dmax at 25 µM was determined as 67% and the DC50 worked out at 28 nM. Besides, the remaining activity at 25 µM under setting [1] stood at 33%.
